Results taken from patent publication US20040009904A1, “APL immunoreactive peptides, conjugates thereof and methods of treatment for aPL antibody-mediated pathologies” (priority 1995, published 2004).
Bridge positions count the residues as written; N and C are the ends. Peptide text beside a SMILES is read from it. * marks the point of attachment. FITC = O=C1OC2(c3ccc(O)cc3Oc3cc(O)ccc32)c2ccc(NC(=S)*)cc21

Assays:
aPL sera = assay: Resin-bound peptide binding survey of patient sera; design: species or system human
From the text: Two peptides were selected for aPL sera testing, one (5A12) representing the ACA-6501 screen and another one (4D3) representing the ACA-6626 screen. […] However, a significant degree of crossreactivity was detectable especially between ACA-6501 and ACA-6626.

[1] = tested on: affinity-purified ACA-6501 aPL antibody; assay: Resin-bound peptide binding of affinity-purified IgG aPL antibody; design: species or system human; details: immunoconjugate color reaction, versus unrelated control peptide and normal IgG
From the text: Phage sequences obtained with affinity-purified ACA-6501 and found to be phage-ELISA-positive were synthesized on a solid support recently developed for combinatorial synthetic peptide libraries. This support, a Rapp resin, has a high peptide density and uses a hydrophilic polyethylene glycol spacer before the first amino acid is coupled. […] Similar results were obtained with the other phage-ELISA-positive peptides tested. In the experiment shown, resin peptide-bound affinity-purified ACA-6501 aPL antibody was detected by an immunoconjugate color reaction.

ACA-6501 [2] = assay: Phage-ELISA; format: binding, human; details: phage clones coated on wells, affACA-6501 2.5 μg/mL
Protocol: This method of selecting phage requires very tight binding of the insert to the screening antibody. Phage are directly coated onto wells of a microtitration plate and incubated with the screening antibody. Following washes to remove unbound antibody, an anti-human IgG alkaline phosphatase conjugate is added to bind any aPL antibodies bound to the phage. APL antibodies are then detected by adding a calorimetric substrate to the well which will react with alkaline phosphatase according to methods well known in the art.
Three mL cultures were prepared from 35 clones previously isolated with affinity purified ACA-6501 in several phage library screens as well as one fUSE 2 phage clone lacking a peptide insert which was used as a control. After centrifugation for 3 minutes at 17,000×g, 100 μL from each phage supernatant (adjusted to −2×10^11 particles/mL, based on absorbance) was added to microtitration plate wells (Falcon, Becton-Dickinson Labware, Lincoln Park, N.Y.) and allowed to incubate overnight at 4° C. Following four washes with TBS 7.4, the plate was blocked with 125 μL of 0.5% BSA/TBS for 1 hour at RT. After another four TBS washes, 100 μL of affACA-6501 previously diluted to 2.5 μg/mL in TBS/BSA was added to each well and allowed to incubate 1 hour at 37° C. Following an additional four washes, 100 μL anti-human IgG diluted 1:1000 in TBS/0.5% Tween was added to each well. After 1 hour at RT, enzyme substrate was added and the incubation allowed to proceed for 2 hours. Following the addition of 50 μL 0.2 M Na2HPO4 to stop the reaction, absorbance was measured at 550 nm in the automated plate absorbance reader. […] The sequences for these clones are showvn in Table 2.

ACA-6501 [3] = assay: Direct binding fluorescence polarization binding assay (dbFP); design: species or system human
From the text: (§1) This assay detects direct binding of the peptide to aPL antibody. Since aPL antibodies bind to β2-GPI (the antigen), the ELISA competitive inhibition assay can show inhibition due to binding to β2-GPI as well inhibition due to binding of the peptide to the aPL antibody. Because binding to antibodies is required in order for the peptide to function as a Toleragen, it is essential to establish that a peptide can directly bind to an aPL antibody. This assay is used to determine the dissociation constants for peptides that bind to two aPL antibodies, ACA-6501 and ACA-6701. While the ELISA assay is useful for high throughput screening because it requires less antibody than the Fluorescence Polarization assay, however, ELISA-positive peptides should be further evaluated by the Fluorescence Polarization assay to determine whether they are capable of directly binding with aPL antibody.
The methodology is described in PanVera Application Guide (1994), PanVera Corporation. Briefly, a trace amount of fluorescein isothiocyanate (FITC) labeled peptide (CB2*-F) is titrated with antibody (ACA 6501 or 6701) and the polarization for the sample is plotted versus the antibody concentration. Polarization was measured with the PanVera Beacon instrument. Data were fitted to Equation 1. [formula] […]

ACA-6701 = assay: Direct binding fluorescence polarization binding assay (dbFP) and displacement kinetics; design: species or system human; details: for Kd: dbFP
From the text: as §1
The methodology is described in PanVera Application Guide (1994), PanVera Corporation. Briefly, a trace amount of fluorescein isothiocyanate (FITC) labeled peptide (CB2*-F) is titrated with antibody (ACA 6501 or 6701) and the polarization for the sample is plotted versus the antibody concentration. Polarization was measured with the PanVera Beacon instrument. Data were fitted to Equation 1. [formula]
where Y is the Y-axis value (milli-polarization units, mP), R is the total concentration of antibody receptor, PL is the polarization for free FITC-labeled peptide (F), and PH is the polarization for F complexed with R (FR). KD is the dissociation constant (reciprocal binding, constant) for F from the FR complex. For these equations to be valid, it must be true that F<<R. This titration is shown in FIGS. 22 and 23 for CB2*-F binding to ACA-6701 and ACA-6501 antibodies, respectively. […] Thus, CB2*-F binding to ACA-6701 is limited only by diffusion of these two molecules together.

SMILES: CC[C@H](C)[C@@H]1NC(=O)[C@H](CC(C)C)NC(=O)[C@@H](NC(=O)[C@@H]2CCCN2C(=O)CNC(=O)[C@H](C)N)CSSC[C@@H](C(=O)N2CCC[C@H]2C(=O)NCC(=O)O)NC(=O)[C@H](CCCNC(=N)N)NC(=O)[C@H](CC(=O)O)NC(=O)[C@@H]2CCCN2C(=O)[C@H](C)NC(=O)[C@H](CC(C)C)NC1=O [5A12, CLILAPDRC]
- pathologic sera (moderate to high GPL) with detectable peptide binding (aPL sera; 13 pathologic sera): 8 of the 13
- control sera (low or no GPL score) with low peptide binding (aPL sera; 19 patient sera): 2 out of 19
- binding of affinity-purified ACA-6501 to resin-bound peptide [1]: dramatically outperformed an unrelated control peptide while not binding normal IgG
- signal in the phage-ELISA (ACA-6501 [2]): significant signals

SMILES: CC[C@H](C)[C@@H]1NC(=O)[C@@H](NC(=O)[C@@H]2CCCN2C(=O)CNC(=S)Nc2ccc3c(c2)C(=O)OC32c3ccc(O)cc3Oc3cc(O)ccc32)CSSC[C@@H](C(=O)NCC(=O)O)NC(=O)[C@H](CCCNC(=N)N)NC(=O)[C@H](CC(=O)O)NC(=O)[C@H](CCCNC(=N)N)NC(=O)[C@H](C)NC(=O)[C@H](CC(C)C)NC(=O)[C@H](CC(C)C)NC1=O [CB2*-F, FITC-GPCILLARDRCG] ({FITC}-GPCILLARDRCG-OH; disulfide 3-11)
- Kd (ACA-6501 [3]; dbFP titration of FIG. 24, from Equation 1, not corrected for antibody bivalency): 241 nM
- Kd (ACA-6501 [3]; dbFP, multiplied by 2 to correct for antibody bivalency): 482 nM
- Kd (ACA-6701; from Equation 1, not corrected for antibody bivalency): 256 nM
- Kd (ACA-6701; multiplied by 2 to correct for antibody bivalency): 512 nM
- dissociation rate constant Koff (ACA-6701; displacement of CB2*-F from 6701 by slight excess of CB2*): 0.0184 s⁻¹
- association rate constant Kon (ACA-6701; from KD and Koff, after correcting for antibody bivalency): 36000 M⁻¹ s⁻¹
